Assay results from patent US9682962B2, “Pyrazolyl pyrimidinamine compound and application thereof” (SHENYANG SINOCHEM AGROCHEMICALS R&D CO., LTD., priority 2013, dated 2017).

Assays:
wheat powdery mildew = assay: Protectant activity in vivo (whole plant), wheat powdery mildew; conditions: protectant activity
Experimental: (§1) The method is as followed: The whole plant is used in this test. The compound is dissolved in a proper solvent to get mother solution. The proper solvent is selected from acetone, methanol, DMF and so on according to their dissolving capability to the sample. […] The testing solution is sprayed to the host plant by a special plant sprayer. The plant is inoculated with fungus after 24 hours. According to the infecting characteristic of fungus, the plant is stored in a humidity chamber and then transferred into greenhouse after infection is finished. And the other plants are placed in greenhouse directly.

[1] = test system: Green peach aphids (Myzus Persicae Sulzer); assay: Bioactivity test against green peach aphid (airbrush foliar spray); assay type: in vivo
Experimental: Compounds were dissolved in mixed solvent (acetone:methanol=1:1), and diluted to required concentration with water containing 0.1% of tween 80.
Diamond back moth, armyworm, peach aphid and carmine spider mite were used as targets and the method of spraying by airbrush was used for determination of insecticidal bioassays.
Method: Filter papers were put in culture dishes (Diameter=6 cm), and water was dripped on filter papers for preserving moisture. Green peach aphids (Myzus Persicae Sulzer) were maintained on cabbage. Leaves (Diameter=3 cm) of approximately 15-30 aphids were put in the culture dishes. Bioactivity tests were used the method of Airbrush Foliar Spray, pressure=10 psi (0.7 kg/cm2), spray volume=0.5 mL. The studies were conducted at […] 25±1 C in incubator cabinets with 60±5% RH. Survey the survival aphids after 48 h and calculate the death rates.

cucumber anthracnose = assay: Protectant activity in vivo (whole plant), cucumber anthracnose; conditions: protectant activity
Experimental: as §1

cucumber downy mildew = assay: Protectant activity in vivo (whole plant), cucumber downy mildew; conditions: protectant activity
Experimental: as §1

SMILES	control effect against wheat powdery mildew (%) (wheat powdery mildew; 6.25 mg/L)	control effect against wheat powdery mildew (%) (wheat powdery mildew; 25 mg/L)	control effect against wheat powdery mildew (%) (wheat powdery mildew; 100 mg/L)	control effect against wheat powdery mildew (%) (wheat powdery mildew; 400 mg/L)	Insecticidal activity against peach aphid (%) ([1]; 10 mg/L)	Insecticidal activity against peach aphid (%) ([1]; 100 mg/L)	Insecticidal activity against peach aphid (%) ([1]; 600 mg/L)	control effect against cucumber anthracnose (%) (cucumber anthracnose; 0.78 mg/L)	control effect against cucumber anthracnose (%) (cucumber anthracnose; 1.56 mg/L)	control effect against cucumber anthracnose (%) (cucumber anthracnose; 3.13 mg/L)	control effect against cucumber anthracnose (%) (cucumber anthracnose; 6.25 mg/L)	control effect against cucumber anthracnose (%) (cucumber anthracnose; 25 mg/L)	control effect against cucumber anthracnose (%) (cucumber anthracnose; 100 mg/L)	control effect against cucumber anthracnose (%) (cucumber anthracnose; 400 mg/L)	control effect against cucumber downy mildew(%) (cucumber downy mildew; 25 mg/L)	control effect against cucumber downy mildew(%) (cucumber downy mildew; 50 mg/L)	control effect against cucumber downy mildew(%) (cucumber downy mildew; 100 mg/L)	control effect against cucumber downy mildew(%) (cucumber downy mildew; 400 mg/L)	control effect against cucumber downy mildew(%) (cucumber downy mildew; 12.5 mg/L)
Cc1ncnc(NCCc2cnn(-c3ccc(F)cc3)c2)c1Cl [Compound 244]	50	80	100	100	65	71	91												
FC(F)c1ncnc(NCCc2cnn(-c3ccc(OC(F)(F)F)cc3)c2)c1Cl [Compound 874]	100	100	100	100				0	20	60	98	100	100	100					
CCc1ncnc(NCCc2cnn(-c3ccc(OC(F)(F)F)cc3)c2)c1Cl [Compound 596]	95	100	100	100							75	98	100	100					
Fc1ccc(-n2cc(CCNc3ncnc(C(F)F)c3Cl)cn2)cc1 [Compound 800]	95	100	100	100	71	100	100								98	100	100	100	
FC(F)c1ncnc(NCCc2cnn(Cc3ccc(Cl)cc3)c2)c1Cl [Compound 5935]					61	56	100								95	100	100	100	50
Cc1ncnc(NCCc2cnn(C(C)(C)C)c2)c1Cl [Compound 8]			100	100							60	80	90	100					
FC(F)c1ncnc(NCCc2cnn(-c3ccc(Cl)cc3)c2)c1Cl [Compound 815]	80	100	100	100	41	94	100												
Cc1ncnc(NCCc2cnn(-c3c(Cl)cc(C(F)(F)F)cc3Cl)c2)c1Cl [Compound 406]	90	98	100	100	28	95	100												
